From US20210361750A1, “Anti-Viral Lactoferrin Facemask” (priority 2020, published 2021) come the findings set out here.

For one data set, the system named is Vero E6 cells. The settings on record: control without virus, 10 mg/mL.
In the next data set the test system is SARS-CoV-2. Nature of the data set: Cyclodextrin testing: antiviral activity against SARS-CoV-2 in Vero E6 cells (CPE). The note with it: pH 7; lactoferrin alone 10 mg/mL, cyclodextrin alone 10 mg/mL, or lactoferrin 5 mg/mL + cyclodextrin 10 mg/mL. Format: cell-based.

Regarding “cyclodextrin [cyclodextrin alone, reference compound]”, the “cytopathic effect on the cells” value in the data set on Vero E6 cells is listed as “neither the lactoferrin alone (10 mg/mL) or the cyclodextrin alone (10 mg/mL) had a cytopathic effect”. The “antiviral activity (cytopathic effect)” value in the data set with SARS-CoV-2 is on record as “none of the experiments showed antiviral activity”.
